{"source": "patent US20210333284A1", "about": "“METHODS AND MATERIALS FOR LARGE-SCALE ASSESSMENT OF LIGAND BINDING SELECTIVITY OF G-QUADRUPLEX RECOGNITION USING CUSTOM G4 MICROARRAYS” (Purdue Research Foundation, priority 2020, published 2021)", "key": {"[1]": {"test_system": "G4 sequences on custom G4 microarray", "assay": "G4 microarray competition of unlabeled molecule with Cy5-PDS", "assay_type": "binding, human", "source_text": "Whether the microarray platform could be used to reveal the G4-binding specificity of unlabeled molecules via a competition with Cy5-PDS binding was explored. Three example molecules, unlabeled PDS, TMPyP4 (a planar molecule that nonspecifically binds G4 structures^14), and DC-34 (a molecule that selectively binds the MYC G4^15) were examined. […] The binding of unlabeled DC-34 was examined (FIG. 4). There appear to be no features that are better-bound in the presence of DC-34. […] This is consistent with the observation that DC-34 binds the top and bottom surfaces of the G4 and makes specific contacts with purines in the tail sequences.^15 The general properties of features in which DC-34 reduced binding of Cy5-PDS (ratio of PDS/PDS+DC-34) were also examined.\nMicroarrays were preincubated with a 100 mM potassium chloride solution for 1 h at RT to induce G4 formation. Protein binding microarray experiments were then performed as previously described.^23 Microarrays were blocked with 4% nonfat dry milk in a potassium phosphate buffer before incubation with proteins or small molecules. Expressed proteins were blocked with 4% nonfat dry milk, ssDNA, and BSA. For the validation experiments, microarrays were also treated with 100 mM lithium chloride to inhibit G4 formation. For experiments examining dsDNA, single-stranded DNA probes were made double-stranded using a primer complementary to a 24-mer constant sequence following the method described previously.^23,24 Double stranding efficiency was monitored using 4% Cy3-dCTP.\nProtein or molecule-bound microarrays were scanned with the G5761A SureScan Dx Microarray Scanner System (Agilent) to detect a Cy5 signal at two laser settings (30 and 100 PMT) to ensure signal intensities were below saturation. Spot intensities from microarray images were extracted using the Agilent Feature Extraction Software and are reported as raw fluorescence units. All binding assays were performed at least twice, with high agreement between replicates (R>0.8). Microarrays with the fewest number of saturated spots were used for further analysis. […] The measured array data (Design 3, PDS) and predictions were normalized using the following\nCustom G4 microarrays have been designed that contain a total of 19,249 G4 DNA sequences [31, the entirety of disclosure of which, including the supplemental information, is incorporated herein by reference]. […] After washing to remove the unbound Cy5-PDS and BMVC, the fluorescence intensities of Cy5-PDS bound to DNA oligonucleotides were detected using a fluorescence scanner. The binding selectivity of BMVC to different G4 structures was assessed by measuring the relative fluorescence intensity reduction of Cy5-PDS as BMVC concentration increased. […]"}, "[2]": {"test_system": "parallel-stranded MYC_14/23T, MYC1234 and VEGF G4s", "assay": "1D 1H NMR titration with parallel G4s", "assay_type": "binding, human", "source_text": "(§1) The binding selectivity of BMVC to G4 structures and flanking sequences was confirmed by NMR titration experiments of BMVC to different G4 sequences, including parallel-stranded MYC_14/23T G4 and its 5′- and 3′-flanking variants, VEGF and MYC1234 G4s, basket-type human telomeric G4 (wtTel22 in Na+), and hybrid type human telomeric G4 (Tel26 in K+) (FIG. 12). BMVC binds best to the MYC_14/23T G4, as indicated by well-resolved imino proton peaks for BMVC complexes (FIG. 12, panel a). […] In contrast, the 3′-end binding of BMVC is sensitive to the mutations at the 3′-flanking sequence, with a clear preference for the 3′-flanking T. In addition, BMVC prefers at least two flanking bases for a specific binding.\n(§2) G4 DNA oligonucleotides were synthesized using β-cyanoethylphosphoramidite solid-phase chemistry (Applied Biosystem Expedite 8909), as described previously. NMR experiments were performed on a Bruker AV-III-500-HD equipped with a BBFO Z-gradient cryoprobe. DNA samples were heated to 95° C. for 5 min, then cooled slowly for G4 formation. For the 1D 1H NMR experiments, samples contained 100-250 μM DNA in an appropriate buffer solution with 10% D2O for the lock. The titrations were performed by adding increasing amounts of the compounds to the DNA samples in solution."}, "[3]": {"test_system": "basket-type (wtTel22 in Na+) and hybrid-type (Tel26 in K+) human telomeric G4s", "assay": "1D 1H NMR titration with telomeric G4s", "assay_type": "binding", "source_text": "as §1, §2"}, "[4]": {"test_system": "MYC expression", "conditions": "human breast cancer cell line; cited from earlier work"}}}
{"smiles": "C[n+]1ccc(/C=C/c2ccc3[nH]c4ccc(/C=C/c5cc[n+](C)cc5)cc4c3c2)cc1.[I-].[I-]", "note": "[BMVC, 3,6-Bis(1-methyl-4-vinylpyridinium) carbazole diiodide]", "values": [{"measurement": "binding selectivity profile to different G4 sequences", "setting": "[1]; 1 μM unlabeled ligand and 1 μM Cy5-PDS", "value": "more pronounced binding selectivity"}, {"measurement": "reduction of fluorescence intensity of Cy5-PDS", "setting": "[1]; most known G4s, 1 μM Cy5-PDS, equimolar (1 μM) BMVC", "value": 50, "unit": "%"}, {"measurement": "binding to MYC1234 and VEGF G4 by NMR titration", "setting": "[2]; other parallel G4s", "value": "bind well"}, {"measurement": "binding to MYC_14/23T G4 by NMR titration", "setting": "[2]; well-resolved imino proton peaks, 95 mM K+, pH 7, 25° C.", "value": "binds best"}, {"measurement": "binding to basket-type or hybrid-type human telomeric G4s by NMR titration", "setting": "[3]", "value": "did not show specific binding"}, {"measurement": "effect on MYC expression", "setting": "[4]", "value": "represses MYC expression"}]}
